Experimental data published in PMC3914206.

Tests used:
[1] = molecular target: T1, panel of 442 kinases (Homo sapiens, UniProt Q9UKI8); assay type: binding; conditions: kinase TLK1; compound concentration 10 µM
T1 construct: purchased KINOMEscan
T1 sequence (Q9UKI8 1-766): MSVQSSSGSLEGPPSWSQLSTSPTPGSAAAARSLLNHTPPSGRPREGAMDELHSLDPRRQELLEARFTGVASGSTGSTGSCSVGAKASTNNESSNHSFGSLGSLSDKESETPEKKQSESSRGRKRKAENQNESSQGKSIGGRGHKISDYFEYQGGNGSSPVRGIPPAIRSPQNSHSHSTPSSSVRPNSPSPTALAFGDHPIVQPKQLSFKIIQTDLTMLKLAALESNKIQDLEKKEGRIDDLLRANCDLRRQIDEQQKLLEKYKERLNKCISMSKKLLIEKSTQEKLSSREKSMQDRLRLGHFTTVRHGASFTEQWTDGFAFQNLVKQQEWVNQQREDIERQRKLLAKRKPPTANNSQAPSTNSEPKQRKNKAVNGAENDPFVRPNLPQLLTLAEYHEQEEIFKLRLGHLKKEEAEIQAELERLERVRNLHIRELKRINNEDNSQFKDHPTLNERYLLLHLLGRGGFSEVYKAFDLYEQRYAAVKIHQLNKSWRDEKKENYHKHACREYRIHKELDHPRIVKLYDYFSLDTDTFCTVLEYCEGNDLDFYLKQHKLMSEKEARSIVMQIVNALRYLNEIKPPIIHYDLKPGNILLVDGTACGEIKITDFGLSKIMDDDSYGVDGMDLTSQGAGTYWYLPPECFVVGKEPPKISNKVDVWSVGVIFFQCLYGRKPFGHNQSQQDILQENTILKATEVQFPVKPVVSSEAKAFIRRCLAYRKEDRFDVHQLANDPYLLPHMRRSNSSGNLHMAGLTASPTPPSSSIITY
Excerpt: (§1) We assessed the selectivity of members of this scaffold using the KINOMEscan methodology across a near comprehensive panel of 442 kinases [[18,27]].

[2] = molecular target: T2, panel of 442 kinases (Homo sapiens, UniProt Q02156); assay type: binding; conditions: Compound Concentration 10 µM
T2 construct: purchased KINOMEscan
T2 sequence (Q02156 1-737): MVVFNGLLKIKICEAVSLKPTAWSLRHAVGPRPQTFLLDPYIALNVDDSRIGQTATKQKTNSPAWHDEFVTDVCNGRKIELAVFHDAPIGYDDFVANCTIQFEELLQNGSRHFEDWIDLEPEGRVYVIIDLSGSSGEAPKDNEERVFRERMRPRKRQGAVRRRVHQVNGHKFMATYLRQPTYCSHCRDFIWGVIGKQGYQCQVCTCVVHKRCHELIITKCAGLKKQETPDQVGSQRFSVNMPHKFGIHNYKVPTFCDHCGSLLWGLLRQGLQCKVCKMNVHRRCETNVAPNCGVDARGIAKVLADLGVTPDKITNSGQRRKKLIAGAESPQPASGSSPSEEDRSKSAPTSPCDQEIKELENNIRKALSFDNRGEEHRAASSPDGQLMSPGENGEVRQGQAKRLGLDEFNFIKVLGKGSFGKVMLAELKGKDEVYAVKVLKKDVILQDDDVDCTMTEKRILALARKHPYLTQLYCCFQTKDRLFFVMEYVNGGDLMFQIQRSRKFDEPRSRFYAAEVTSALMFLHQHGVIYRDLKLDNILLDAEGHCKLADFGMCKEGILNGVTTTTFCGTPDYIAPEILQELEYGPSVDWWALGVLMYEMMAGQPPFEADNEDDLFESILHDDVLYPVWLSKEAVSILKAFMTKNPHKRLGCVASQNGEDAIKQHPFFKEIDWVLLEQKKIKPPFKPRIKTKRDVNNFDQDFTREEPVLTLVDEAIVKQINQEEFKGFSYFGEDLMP
Excerpt: as §1

In the case of `COc1cc(C(=O)N2CCC(N3CCN(C)CC3)CC2)ccc1Nc1ncc2c(n1)N(C1CCCC1)c1ccccc1C(=O)N2C` [Compound 25, 11-cyclopentyl-2-((2-methoxy-4-(4-(4-methylpiperazin-1-yl)piperidine-1-carbonyl)phenyl)amino)-5-methyl-5H-benzo[e]pyrimido[5,4-b][1,4]diazepin-6(11H)-one], the “% Ctrl, TLK1” value [1] is reported as 74 % Ctrl and the “KINOMEscan: PRKCE” value [2] is reported as 79.
`CCOc1cc(C(=O)N2CCC(N3CCN(C)CC3)CC2)ccc1Nc1ncc2c(n1)N(C1CCCC1)c1ccccc1C(=O)N2C` [Compound 26] was tested, and the “% Ctrl, TLK1” value [1] was 90 % Ctrl and the “KINOMEscan: PRKCE” value [2] was 98.
In the case of `COc1cc(C(=O)N2CCC(N3CCN(C)CC3)CC2)ccc1Nc1ncc2c(n1)N1CCc3cccc(c31)C(=O)N2C` [Compound 24], the “KINOMEscan: PRKCE” value [2] is reported as 72.
In the case of `COc1cc(C(=O)N2CCC(N3CCN(C)CC3)CC2)ccc1Nc1ncc2c(n1)N(C)c1ccccc1C(=O)N2C` [15 (LRRK2-IN-1)], the “% Ctrl, TLK1” value [1] is reported as 100 % Ctrl and the “KINOMEscan: PRKCE” value [2] is reported as 100.
